Where a name gives a salt, the structure may show the parent alone.
Assays:
Experiment in all cases: cell viability (% survival relative to DMSO control); higher = less cytotoxic
Details in all cases: 72 h
Mono-Mac-6 = system: Mono-Mac-6
Method: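 8x8 drug-combination matrices (0–5000 nM; rosiglitazone and lestaurtinib 0–1000 nM) were run in Mono-Mac-6 cells for 72 h with CellTiter-Glo read-out. Survival is normalised to DMSO and 10 µM bortezomib and clipped at 100%.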

MV4-11 = system: MV4-11
Method: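 8x8 drug-combination matrices (0–5000 nM; rosiglitazone and lestaurtinib 0–1000 nM) were run in MV4-11 cells for 72 h with CellTiter-Glo read-out. Survival is normalised to DMSO and 10 µM bortezomib and clipped at 100%.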

HL-60 = system: HL-60
Method: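 8x8 drug-combination matrices (0-5000 nM; rosiglitazone and lestaurtinib 0-1000 nM) were run in HL-60 cells for 72 h with a CellTiter-Glo read-out. Survival is normalised to DMSO and 10 µM bortezomib and clipped at 100%. Bliss synergy was analysed in SynergyFinder.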

O=C(O)CC[N+](=O)[O-] [3-nitropropionic acid] + CCn1c(=Cc2cccc[n+]2CC)sc(=C2Sc3ccccc3N2C)c1=O [MKT 077]
cell viability [%]
Details	drug1 concentration 5 nM	drug1 concentration 10 nM	drug1 concentration 50 nM	drug1 concentration 100 nM	drug1 concentration 500 nM	drug1 concentration 1000 nM	drug1 concentration 5000 nM
HL-60, drug2 concentration 5 nM	95.5	92.9	74.5	> 100	> 100	> 100	88.8
HL-60, drug2 concentration 10 nM	> 100	> 100	> 100	> 100	> 100	> 100	> 100
HL-60, drug2 concentration 50 nM	> 100	92.7	> 100	98.3	97.7	> 100	> 100
HL-60, drug2 concentration 100 nM	91.2	83.3	56.4	> 100	99.2	50.3	> 100
HL-60, drug2 concentration 500 nM	99.2	84.2	> 100	> 100	> 100	84.7	86.6
HL-60, drug2 concentration 1000 nM	> 100	> 100	> 100	> 100	84	> 100	67.3
HL-60, drug2 concentration 5000 nM	> 100	79.2	> 100	84.7	> 100	> 100	99.6
MV4-11, drug2 concentration 5 nM	89.1	97	> 100	86.8	> 100	> 100	75.6
MV4-11, drug2 concentration 10 nM	89.2	> 100	> 100	83.7	98.1	> 100	> 100
MV4-11, drug2 concentration 50 nM	> 100	> 100	> 100	84.1	> 100	81.3	> 100
MV4-11, drug2 concentration 100 nM	97.3	> 100	93.7	84.3	> 100	88.2	68.4
MV4-11, drug2 concentration 500 nM	> 100	96	92.7	> 100	94.3	91.4	86.1
MV4-11, drug2 concentration 1000 nM	89.6	97.4	92.8	> 100	97.6	> 100	65.1
MV4-11, drug2 concentration 5000 nM	72.5	80	96.6	> 100	87.2	97.2	79.8
Mono-Mac-6, drug2 concentration 5 nM	> 100	98.1	> 100	90.2	> 100	> 100	90.3
Mono-Mac-6, drug2 concentration 10 nM	> 100	> 100	> 100	> 100	> 100	> 100	> 100
Mono-Mac-6, drug2 concentration 50 nM	> 100	> 100	> 100	91	96.5	86	> 100
Mono-Mac-6, drug2 concentration 100 nM	84.8	> 100	> 100	> 100	> 100	> 100	76.8
Mono-Mac-6, drug2 concentration 500 nM	99.9	82.8	> 100	> 100	> 100	84.4	> 100
Mono-Mac-6, drug2 concentration 1000 nM	> 100	> 100	> 100	> 100	96.7	87	82.4
Mono-Mac-6, drug2 concentration 5000 nM	79.1	74.4	> 100	> 100	63.8	> 100	> 100

CCn1c(=Cc2cccc[n+]2CC)sc(=C2Sc3ccccc3N2C)c1=O [MKT 077] + CN(C)CCNC(=O)c1cccn2c(=O)c3cc4ccccc4cc3nc12 [Bmh-21]
cell viability [%]
Details	drug1 concentration 5 nM	drug1 concentration 10 nM	drug1 concentration 50 nM	drug1 concentration 100 nM	drug1 concentration 500 nM	drug1 concentration 1000 nM	drug1 concentration 5000 nM
HL-60, drug2 concentration 5 nM	72.8	> 100	> 100	> 100	> 100	> 100	82
HL-60, drug2 concentration 10 nM	97.1	92.4	> 100	> 100	62.4	> 100	> 100
HL-60, drug2 concentration 50 nM	> 100	89.5	> 100	> 100	87.1	> 100	> 100
HL-60, drug2 concentration 100 nM	> 100	> 100	> 100	> 100	85.5	> 100	> 100
HL-60, drug2 concentration 500 nM	58.2	61.1	40.5	44.1	86	41.3	84.4
HL-60, drug2 concentration 1000 nM	31.2	58.3	48.1	66.9	18.6	34.4	54.3
HL-60, drug2 concentration 5000 nM	16.4	30.1	-2.48	43.2	29.9	7.94	52
MV4-11, drug2 concentration 5 nM	89	81.4	> 100	87.9	90.8	> 100	78.7
MV4-11, drug2 concentration 10 nM	97.1	> 100	> 100	99.1	86	71	> 100
MV4-11, drug2 concentration 50 nM	86.2	86.7	88.4	> 100	84.5	> 100	> 100
MV4-11, drug2 concentration 100 nM	> 100	> 100	92.3	95.9	89.4	69.7	> 100
MV4-11, drug2 concentration 500 nM	70.6	88.8	78.3	87.8	> 100	86.7	84.5
MV4-11, drug2 concentration 1000 nM	87.2	46.6	> 100	89.9	74.8	60.5	64.2
MV4-11, drug2 concentration 5000 nM	31.1	35.2	31.4	63.2	25.9	24.1	37.5
Mono-Mac-6, drug2 concentration 5 nM	93.5	> 100	99.6	94.6	99.8	> 100	> 100
Mono-Mac-6, drug2 concentration 10 nM	> 100	> 100	> 100	90.1	> 100	78.2	> 100
Mono-Mac-6, drug2 concentration 50 nM	95.8	86.2	82.7	> 100	87.1	> 100	99
Mono-Mac-6, drug2 concentration 100 nM	91.6	> 100	> 100	99.7	> 100	> 100	> 100
Mono-Mac-6, drug2 concentration 500 nM	90.4	93.3	82.1	87.7	84.3	62.8	73.5
Mono-Mac-6, drug2 concentration 1000 nM	76.7	77.5	> 100	72.8	76.2	74.1	56.9
Mono-Mac-6, drug2 concentration 5000 nM	46	58.2	59.9	64.1	65.1	58.6	24.6

CN(CCOc1ccc(Cc2sc(O)nc2O)cc1)c1ccccn1 [Rosiglitazone] + CC(C)(Cc1ccccc1)NCC(O)c1ccc(O)c(NS(C)(=O)=O)c1 [Zinterol hydrochloride]
cell viability [%]
Details	drug1 concentration 1 nM	drug1 concentration 5 nM	drug1 concentration 10 nM	drug1 concentration 50 nM	drug1 concentration 100 nM	drug1 concentration 500 nM	drug1 concentration 1000 nM
HL-60, drug2 concentration 5 nM	87.9	41.2	> 100	97.5	> 100	> 100	> 100
HL-60, drug2 concentration 10 nM	63.4	95.3	> 100	> 100	62.7	> 100	> 100
HL-60, drug2 concentration 50 nM	83.3	83	83.9	> 100	58.8	> 100	92.8
HL-60, drug2 concentration 100 nM	> 100	92.2	90.1	> 100	80.5	78.9	> 100
HL-60, drug2 concentration 500 nM	90.1	> 100	> 100	95.3	> 100	72.1	80.8
HL-60, drug2 concentration 1000 nM	40.6	> 100	> 100	> 100	> 100	60.1	> 100
HL-60, drug2 concentration 5000 nM	59.8	94.4	> 100	> 100	> 100	> 100	97.7
MV4-11, drug2 concentration 5 nM	> 100	97.6	93.9	77.8	> 100	> 100	> 100
MV4-11, drug2 concentration 10 nM	> 100	> 100	> 100	> 100	> 100	89.1	> 100
MV4-11, drug2 concentration 50 nM	97	96.9	91.9	> 100	> 100	94	> 100
MV4-11, drug2 concentration 100 nM	> 100	> 100	> 100	> 100	93	96.1	> 100
MV4-11, drug2 concentration 500 nM	99.9	> 100	98.7	> 100	> 100	87.2	98.8
MV4-11, drug2 concentration 1000 nM	> 100	70.6	96.2	> 100	91.6	95.1	> 100
MV4-11, drug2 concentration 5000 nM	95	> 100	98.5	> 100	> 100	> 100	> 100
Mono-Mac-6, drug2 concentration 5 nM	83	77.8	> 100	79.7	78.7	27.6	21.7
Mono-Mac-6, drug2 concentration 10 nM	66.3	76	74.4	89.6	60.8	20.5	24.5
Mono-Mac-6, drug2 concentration 50 nM	86.8	79.1	74.5	76.7	45.8	29.2	28.8
Mono-Mac-6, drug2 concentration 100 nM	70.8	77.4	78.3	62.9	49.7	28	18.9
Mono-Mac-6, drug2 concentration 500 nM	74.7	67.8	67.6	66.1	47.9	28.4	27.1
Mono-Mac-6, drug2 concentration 1000 nM	76.3	86.7	74.7	66.2	45.4	20.5	32.7
Mono-Mac-6, drug2 concentration 5000 nM	55.9	64.8	51.4	46.9	49.4	22	0

CN(CCOc1ccc(Cc2sc(O)nc2O)cc1)c1ccccn1 [Rosiglitazone] + c1cc(-c2cnn3cc(-c4ccc(OCCN5CCCCC5)cc4)cnc23)ccn1 [Dorsomorphin]
cell viability [%]
Details	drug1 concentration 1 nM	drug1 concentration 5 nM	drug1 concentration 10 nM	drug1 concentration 50 nM	drug1 concentration 100 nM	drug1 concentration 500 nM	drug1 concentration 1000 nM
HL-60, drug2 concentration 5 nM	> 100	95	74	> 100	> 100	94.8	> 100
HL-60, drug2 concentration 10 nM	> 100	> 100	> 100	> 100	> 100	> 100	> 100
HL-60, drug2 concentration 50 nM	94.3	> 100	> 100	> 100	81.2	> 100	> 100
HL-60, drug2 concentration 100 nM	91.4	> 100	> 100	> 100	> 100	> 100	> 100
HL-60, drug2 concentration 500 nM	90.8	> 100	84.6	> 100	> 100	60.9	> 100
HL-60, drug2 concentration 1000 nM	88	> 100	40.1	> 100	86.7	87.6	96.3
HL-60, drug2 concentration 5000 nM	12.7	33.1	33.7	24.4	65.7	82.5	90.1
MV4-11, drug2 concentration 5 nM	96.5	> 100	> 100	98.4	> 100	> 100	> 100
MV4-11, drug2 concentration 10 nM	> 100	97.3	> 100	93.5	> 100	83.4	> 100
MV4-11, drug2 concentration 50 nM	> 100	98.2	> 100	> 100	84.9	> 100	> 100
MV4-11, drug2 concentration 100 nM	98.3	98.1	99.6	> 100	> 100	> 100	85.3
MV4-11, drug2 concentration 500 nM	99	45.9	46.8	45.7	49	13	43.8
MV4-11, drug2 concentration 1000 nM	26.1	20.7	21.6	23.8	7.5	23.4	16.8
MV4-11, drug2 concentration 5000 nM	2.86	4.57	4.91	7.17	6.15	6.58	5.32
Mono-Mac-6, drug2 concentration 5 nM	> 100	> 100	93	> 100	89	49.2	33.8
Mono-Mac-6, drug2 concentration 10 nM	> 100	85.1	84.3	84.5	76	36.1	32.6
Mono-Mac-6, drug2 concentration 50 nM	87.3	81.8	78.8	94.7	85.6	47.2	33.5
Mono-Mac-6, drug2 concentration 100 nM	68.8	> 100	84.1	74.5	81.5	28.7	31.1
Mono-Mac-6, drug2 concentration 500 nM	78.1	59.9	54.8	60.7	53.5	22.8	6.36
Mono-Mac-6, drug2 concentration 1000 nM	42.4	38.6	35.9	47.5	37.7	11.6	9.67
Mono-Mac-6, drug2 concentration 5000 nM	6.04	9.54	9.61	9.94	12.2	5.66	12.4

From the supplement of paper PMC8671470
